Data published in patent US20150313921A1, “Cancer Treatment Methods” (PLEDPHARMA AB, priority 2012, published 2015).
Read-outs that look alike come from different tables or passages of the source. Values belong to the molecule of their own block, whether it stands above or below them.

Tests used:
[1] = system: human non-small cell lung cancer (NSCLC) U1810 cells; experiment: MTT viability assay, U1810 cells; type: cell-based; conditions: for IC50: 48 h exposure, read-out: IC50 (concentration causing 50% inhibition of viability)
Protocol: The viability of cells was measured using the MTT assay. […] Cells were then exposed for 48 h to 1-1,000 μM DPDP (lot #RDL02090206) or MnDPDP (lot #02090106). […] The viability of U1810 cells in the presence of increasing concentrations of DPDP or MnDPDP is presented as concentration-response curves (mean±S.D.). The individual curves were fitted to the sigmoidal normalized response logistic equation (Graphpad Prism, version 5.02). From this analysis the concentrations causing 50% inhibition (IC50) of the test substances were calculated.

[2] = Mn2+ versus Zn2+
[3] = system: ovarian carcinoma A2780 cells; experiment: MTT viability assay, A2780 cells; conditions: for cytotoxic effect in A2780 cells: alone (MnDPDP: alone or with Dx 3 nM or 30 nM), 48 h, MTT; for EC50: Homo sapiens, A2780, 48 h
Protocol: A2780 cells were co-incubated with MnDPDP, DPDP, and/or Dx. The viability of cells was measured using the methylthiazoletetrazolium (MTT) assay. Briefly, 8000 cells were seeded per well on a 96-well plate and grown overnight under standards. Cells were then exposed for 48 hours to various concentrations of MnDPDP, DPDP, and/or Dx at 37° C. The viability of the cells was then assessed by adding 5 mg/ml MTT to a final concentration of 0.5 mg/ml and incubating cells for a further 4 hours at 37° C. The blue formazan that is formed by mitochondrial dehydrogenases of viable cells was then dissolved overnight at 37° C. by adding 10% SDS and 10 mM HCl to a final concentration of 5% SDS and 5 mM HCl. Finally, the absorbance of the solution was read at 570 nm with a reference at 670 nm in a microplate reader (SpectraMax 340; Molecular Devices, Sunnyvale, Calif.) connected to an Apple Macintosh computer running the program Softmax Pro V1.2.0 (Molecular Devices). Viability is expressed as percent absorbance (A570 nm-A670 nm) relative to the untreated control cells. All values were given as arithmetic means±SD for in vitro cell MTT viability data. In vitro responses of Dx, MnDPDP, and/or DPDP with regard to viability are presented as concentration-effect curves. […] From this analysis, the low and Q7 high pD2 values (negative log of the concentration of Dx that produces half of its maximal inhibition in the two phases, −logIC50) were calculated.

[4] = cited from earlier work
[5] = pigs, ten minutes after injection; cited from earlier work
infarct size = conditions: pigs; MnPLED 3 μmol/kg; cited from earlier work
[6] = cited from earlier work; remark: listed apart in the source

Compound: Cc1ncc(COP(=O)(O)O)c(CN(CCN(CC(=O)O)Cc2c(COP(=O)(O)O)cnc(C)c2O)CC(=O)O)c1O [DPDP, N,N′-bis-(pyridoxal-5-phosphate)-ethylenediamine-N,N′-diacetic acid]
IC50 ratio between MnDPDP and DPDP (times more potent than MnDPDP) ([1]; 48 h): 17 times | IC50 [1]: 52.8 µM | Mn2+ dissociates more readily than Zn2+ (fold) [2]: about 1000 times | cancer cells killed ([3]; 30 μM, A2780 cells): approximately 50% | cancer cells killed ([3]; 100 μM, A2780 cells): killing almost all cells | additive effect to the cytotoxic effect of Dx alone ([3]; DPDP 10 μM or 30 μM added to Dx, A2780 cells): did not reveal any obvious additive effect | cytotoxic effect in A2780 cells [3]: had cytotoxic effects

EC50 ([3]; read-out: pD2 (-logEC50), first phase (high pD2) of biphasic curve (converted)): 0.00545 µM | EC50 ([3]; read-out: pD2 (-logEC50), second phase (low pD2) of biphasic curve (converted)): 0.225 µM
Compound: COc1cccc2c1C(=O)c1c(O)c3c(c(O)c1C2=O)C[C@@](O)(C(=O)CO)C[C@@H]3O[C@H]1C[C@H](N)[C@H](O)[C@H](C)O1 [Dx, Doxorubicin, reference compound]

Compound: Cc1[nH+]cc(COP(=O)([O-])[O-])c(CN(CCN(CC(=O)[O-])Cc2c(COP(=O)([O-])O)c[nH+]c(C)c2O)CC(=O)[O-])c1O.[Mn].[Na+].[Na+].[Na+] [MnDPDP]
IC50 [1]: 437 µM | administered manganese released ([4]; intravenous injection into humans): about 80% | injected manganese that stays bound to the chelator ([4]; man, for a considerable amount of time): about 30% | injected MnDPDP transformed into MnPLED ([4]; shortly after intravenous injection in man): about 30% | replacement of manganese with zinc [5]: all manganese has been replaced with zinc | effect on infarct size (infarct size): did not reduce the infarct size | cytotoxic effect in A2780 cells [3]: did not have any obvious cytotoxic effects

Mn2+ dissociates more readily than Zn2+ (fold) [2]: about 1000 times
Compound: Cc1ncc(CO)c(CN(CCN(CC(=O)O)Cc2c(CO)cnc(C)c2O)CC(=O)O)c1O [PLED, N,N′-dipyridoxyl ethylenediamine-N,N′-diacetic acid]
stability constant with Mn2+ ([6]; Mn2+): 12.56 logK | stability constant with Zn2+ ([6]; Zn2+): 16.68 logK
